Test results: patent US10294202B2, “Pyrrolidinones as herbicides” (FMC Corporation, priority 2013, dated 2019)

How the values were obtained:
ragweed = experiment: Test C pre-/postemergence herbicide test; format: in vivo, Ambrosia elatior
Summary of the method: (§1)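 Plants grown and held in a greenhouse for 13 to 15 days post-spray, then rated 0–100 by visual comparison with controls. Pre treatments targeted seeds in loam and sand; post treatments targeted 1- to 4-leaf plants in peat-based potting medium.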

galium = experiment: Test C pre-/postemergence herbicide test; format: in vivo, Galium aparine; conditions: Preemergence; for Galium plant response rating: 31 g ai/ha
Summary of the method: as §1

corn = experiment: Test A pre-/postemergence herbicide test; format: in vivo, Zea mays; conditions: for Corn plant response rating: Preemergence, visual rating on 0 to 100 scale (0 no effect, 100 complete control)
Summary of the method: (§2)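 Approximately 10 days after treatment in the greenhouse, plants were compared with untreated controls and given a 0–100 visual injury rating. Applications: preemergence directed soil spray; postemergence on 2–10 cm plants at the one- to two-leaf stage.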

ryegrass, Italian = experiment: Test C pre-/postemergence herbicide test; format: in vivo, Lolium multiflorum
Summary of the method: as §1

nutsedge, yellow = experiment: Test C pre-/postemergence herbicide test; format: in vivo, Cyperus esculentus
Summary of the method: as §1

rice = experiment: Test B flooded paddy test; format: in vivo, Oryza sativa; conditions: 250 g ai/ha, Flood; scale of 0 to 100 where 0 is no effect and 100 is complete control
Summary of the method: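 Visual ratings from 0, meaning no effect, up to 100, meaning complete control, were made by comparison with untreated controls 13 to 15 days after treatment. Test compounds went straight into floodwater standing 3 cm over the soil of pots holding 2-leaf seedlings.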

pigweed [1] = experiment: Test A pre-/postemergence herbicide test; format: in vivo, Amaranthus retroflexus; conditions: for Pigweed plant response rating: Preemergence, visual rating on 0 to 100 scale (0 no effect, 100 complete control)
Summary of the method: as §2

johnsongrass = experiment: Test C pre-/postemergence herbicide test; format: in vivo, Sorghum halepense
Summary of the method: as §1

pigweed [2] = experiment: Test C pre-/postemergence herbicide test; format: in vivo, Amaranthus retroflexus
Summary of the method: as §1

giant foxtail = experiment: Test A pre-/postemergence herbicide test; format: in vivo, Setaria faberii; conditions: for Foxtail, Giant plant response rating: Preemergence, visual rating on 0 to 100 scale (0 no effect, 100 complete control)
Summary of the method: as §2

[3] = Postemergence, 31 g ai/ha, scale 0 (no effect) to 100 (complete control)
[4] = Postemergence, 62 g ai/ha, scale 0 to 100 (0 no effect, 100 complete control)
[5] = Postemergence, 125 g ai/ha, scale 0 to 100 (0 no effect, 100 complete control)
[6] = Preemergence, 62 g ai/ha, scale 0 to 100
[7] = Preemergence, 125 g ai/ha, scale 0 to 100 (0 no effect, 100 complete control)
[8] = 125 g ai/ha, scale 0 to 100 (0 no effect, 100 complete control)
[9] = scale 0 to 100 (0 no effect, 100 complete control)
[10] = Postemergence, 125 g ai/ha, 0 to 100 scale, 0 no effect, 100 complete control
[11] = Postemergence, 500 g ai/ha, 0 to 100 scale (0 no effect, 100 complete control)
[12] = preemergence, 500 g ai/ha, 0 to 100 scale
[13] = Postemergence, 16 g ai/ha, scale 0 to 100 (0 no effect, 100 complete control)
[14] = Preemergence, 16 g ai/ha, scale 0 to 100
[15] = Postemergence, 250 g ai/ha, scale 0 to 100 (0 no effect, 100 complete control)

O=C1NCC(c2ccc(F)c(Cl)c2)C1C(=O)Nc1ccccc1F (stereo not shown) [Compound 60]
60: Plant response rating, Corn (corn; [11])
10: Plant response rating, Ragweed (ragweed; [3]) | Plant response rating, Ragweed (ragweed; [6]) | Plant response rating, Pigweed (pigweed [2]; [6])
5: Plant response rating, Galium (galium; [8]) | Plant response rating, Nutsedge, Yellow (nutsedge, yellow; [5]) | Plant response rating, Johnsongrass (johnsongrass; [3]) | Plant response rating, Johnsongrass (johnsongrass; [4]) | Plant response rating, Johnsongrass (johnsongrass; [5])
80: Plant response rating, Foxtail, Giant (giant foxtail; [10]) | Plant response rating, Foxtail, Giant (giant foxtail; [11])
25: Plant response rating, Ragweed (ragweed; [4]) | Plant response rating, Ragweed (ragweed; [7])
15: Plant response rating, Nutsedge, Yellow (nutsedge, yellow; [7])
20: Plant response rating, Johnsongrass (johnsongrass; [6]) | Plant response rating, Johnsongrass (johnsongrass; [7]) | Plant response rating, Pigweed (pigweed [2]; [4]) | Plant response rating, Pigweed (pigweed [2]; [5]) | Plant response rating, Pigweed (pigweed [2]; [7])
90: Foxtail, Giant plant response rating (giant foxtail; 125 g ai/ha) | Plant response rating, Foxtail, Giant (giant foxtail; [12])
0: Plant response rating, Galium (galium; 62 g ai/ha, scale 0 to 100) | Galium plant response rating (galium; [9]) | Plant response rating, Corn (corn; [10]) | Corn plant response rating (corn; 125 g ai/ha) | Plant response rating, Corn (corn; [12]) | Plant response rating, Ryegrass, Italian (ryegrass, Italian; [3]) | Plant response rating, Ryegrass, Italian (ryegrass, Italian; [4]) | Plant response rating, Ryegrass, Italian (ryegrass, Italian; [5]) | Plant response rating, Ryegrass, Italian (ryegrass, Italian; [6]) | Plant response rating, Ryegrass, Italian (ryegrass, Italian; [7]) | Plant response rating, Nutsedge, Yellow (nutsedge, yellow; [3]) | Plant response rating, Nutsedge, Yellow (nutsedge, yellow; [4]) | Plant response rating, Nutsedge, Yellow (nutsedge, yellow; [6]) | Plant response rating, Rice (rice) | Plant response rating, Pigweed (pigweed [1]; [10]) | Plant response rating, Pigweed (pigweed [1]; [11]) | Pigweed plant response rating (pigweed [1]; 125 g ai/ha) | Plant response rating, Pigweed (pigweed [1]; [12])
35: Plant response rating, Ragweed (ragweed; [5])

O=C1NCC(c2cc(F)c(F)c(F)c2)C1C(=O)Nc1cccc(F)c1F (stereo not shown) [Compound 48]
25: Plant response rating, Pigweed (pigweed [2]; [3])
90: Plant response rating, Foxtail, Giant (giant foxtail; [12])
0: Plant response rating, Ragweed (ragweed; [13]) | Plant response rating, Ragweed (ragweed; [14]) | Plant response rating, Galium (galium; 16 g ai/ha, scale 0 to 100) | Galium plant response rating (galium; [9]) | Plant response rating, Corn (corn; [10]) | Corn plant response rating (corn; 125 g ai/ha) | Plant response rating, Ryegrass, Italian (ryegrass, Italian; [13]) | Plant response rating, Ryegrass, Italian (ryegrass, Italian; [3]) | Plant response rating, Ryegrass, Italian (ryegrass, Italian; [4]) | Plant response rating, Ryegrass, Italian (ryegrass, Italian; [5]) | Plant response rating, Ryegrass, Italian (ryegrass, Italian; [6]) | Plant response rating, Ryegrass, Italian (ryegrass, Italian; [7]) | Plant response rating, Ryegrass, Italian (ryegrass, Italian; [14]) | Plant response rating, Nutsedge, Yellow (nutsedge, yellow; [13]) | Plant response rating, Nutsedge, Yellow (nutsedge, yellow; [3]) | Plant response rating, Nutsedge, Yellow (nutsedge, yellow; [4]) | Plant response rating, Nutsedge, Yellow (nutsedge, yellow; [5]) | Plant response rating, Nutsedge, Yellow (nutsedge, yellow; [6]) | Plant response rating, Nutsedge, Yellow (nutsedge, yellow; [14]) | Plant response rating, Pigweed (pigweed [1]; [10]) | Plant response rating, Pigweed (pigweed [1]; [11]) | Pigweed plant response rating (pigweed [1]; 125 g ai/ha) | Plant response rating, Pigweed (pigweed [1]; [12]) | Plant response rating, Johnsongrass (johnsongrass; [13]) | Plant response rating, Johnsongrass (johnsongrass; [3]) | Plant response rating, Johnsongrass (johnsongrass; [4]) | Plant response rating, Johnsongrass (johnsongrass; [5]) | Plant response rating, Johnsongrass (johnsongrass; [14]) | Plant response rating, Pigweed (pigweed [2]; [6]) | Plant response rating, Pigweed (pigweed [2]; [7]) | Plant response rating, Pigweed (pigweed [2]; [14])
5: Plant response rating, Ragweed (ragweed; [3]) | Plant response rating, Ragweed (ragweed; [4])
50: Plant response rating, Corn (corn; [11])
40: Plant response rating, Pigweed (pigweed [2]; [5])
80: Plant response rating, Foxtail, Giant (giant foxtail; [10]) | Plant response rating, Foxtail, Giant (giant foxtail; [11]) | Foxtail, Giant plant response rating (giant foxtail; 125 g ai/ha)
10: Plant response rating, Ragweed (ragweed; [6]) | Plant response rating, Ragweed (ragweed; [7]) | Plant response rating, Johnsongrass (johnsongrass; [6]) | Plant response rating, Pigweed (pigweed [2]; [13])
35: Plant response rating, Ragweed (ragweed; [5])
60: Plant response rating, Galium (galium; [8])
30: Plant response rating, Galium (galium; 62 g ai/ha, scale 0 to 100) | Plant response rating, Pigweed (pigweed [2]; [4])
20: Plant response rating, Corn (corn; [12]) | Plant response rating, Nutsedge, Yellow (nutsedge, yellow; [7]) | Plant response rating, Rice (rice) | Plant response rating, Johnsongrass (johnsongrass; [7])

O=C1NCC(c2ccc(Cl)c(F)c2)C1C(=O)Nc1cccc(F)c1F (stereo not shown) [Compound 52]
50: Plant response rating, Ragweed (ragweed; [5]) | Plant response rating, Pigweed (pigweed [2]; [5])
10: Plant response rating, Ragweed (ragweed; [3]) | Plant response rating, Ragweed (ragweed; [4]) | Plant response rating, Nutsedge, Yellow (nutsedge, yellow; [3]) | Plant response rating, Nutsedge, Yellow (nutsedge, yellow; [4]) | Plant response rating, Nutsedge, Yellow (nutsedge, yellow; [5]) | Plant response rating, Nutsedge, Yellow (nutsedge, yellow; [15]) | Plant response rating, Johnsongrass (johnsongrass; [7])
25: Plant response rating, Nutsedge, Yellow (nutsedge, yellow; [6]) | Plant response rating, Nutsedge, Yellow (nutsedge, yellow; [7]) | Plant response rating, Rice (rice) | Plant response rating, Pigweed (pigweed [2]; [3])
30: Plant response rating, Corn (corn; [11])
40: Plant response rating, Pigweed (pigweed [1]; [11]) | Plant response rating, Pigweed (pigweed [1]; [12]) | Plant response rating, Pigweed (pigweed [2]; [4])
20: Plant response rating, Pigweed (pigweed [2]; [6])
90: Plant response rating, Galium (galium; [8]) | Plant response rating, Galium (galium; 250 g ai/ha, scale 0 to 100 (0 no effect, 100 complete control)) | Plant response rating, Foxtail, Giant (giant foxtail; [12])
0: Plant response rating, Ragweed (ragweed; [6]) | Plant response rating, Ragweed (ragweed; [7]) | Plant response rating, Galium (galium; 62 g ai/ha, scale 0 to 100) | Galium plant response rating (galium; [9]) | Plant response rating, Corn (corn; [10]) | Corn plant response rating (corn; 125 g ai/ha) | Plant response rating, Corn (corn; [12]) | Plant response rating, Ryegrass, Italian (ryegrass, Italian; [3]) | Plant response rating, Ryegrass, Italian (ryegrass, Italian; [4]) | Plant response rating, Ryegrass, Italian (ryegrass, Italian; [5]) | Plant response rating, Ryegrass, Italian (ryegrass, Italian; [15]) | Plant response rating, Ryegrass, Italian (ryegrass, Italian; [6]) | Plant response rating, Ryegrass, Italian (ryegrass, Italian; [7]) | Plant response rating, Pigweed (pigweed [1]; [10]) | Pigweed plant response rating (pigweed [1]; 125 g ai/ha) | Plant response rating, Johnsongrass (johnsongrass; [3]) | Plant response rating, Johnsongrass (johnsongrass; [4]) | Plant response rating, Johnsongrass (johnsongrass; [5]) | Plant response rating, Johnsongrass (johnsongrass; [15]) | Plant response rating, Johnsongrass (johnsongrass; [6])
80: Plant response rating, Foxtail, Giant (giant foxtail; [10]) | Plant response rating, Foxtail, Giant (giant foxtail; [11]) | Foxtail, Giant plant response rating (giant foxtail; 125 g ai/ha)
60: Plant response rating, Pigweed (pigweed [2]; [15])
55: Plant response rating, Ragweed (ragweed; [15]) | Plant response rating, Pigweed (pigweed [2]; [7])

O=C1NCC(c2cc(F)c(F)cc2F)C1C(=O)Nc1cccc(F)c1F (stereo not shown) [Compound 50]
90: Foxtail, Giant plant response rating (giant foxtail; 125 g ai/ha) | Plant response rating, Foxtail, Giant (giant foxtail; [12])
20: Plant response rating, Pigweed (pigweed [2]; [5]) | Plant response rating, Pigweed (pigweed [2]; [15])
5: Plant response rating, Nutsedge, Yellow (nutsedge, yellow; [15])
10: Plant response rating, Ragweed (ragweed; [15]) | Plant response rating, Johnsongrass (johnsongrass; [15]) | Plant response rating, Pigweed (pigweed [2]; [3]) | Plant response rating, Pigweed (pigweed [2]; [4])
80: Plant response rating, Foxtail, Giant (giant foxtail; [10]) | Plant response rating, Foxtail, Giant (giant foxtail; [11])
0: Plant response rating, Ragweed (ragweed; [3]) | Plant response rating, Ragweed (ragweed; [4]) | Plant response rating, Ragweed (ragweed; [5]) | Plant response rating, Corn (corn; [10]) | Plant response rating, Corn (corn; [11]) | Corn plant response rating (corn; 125 g ai/ha) | Plant response rating, Corn (corn; [12]) | Plant response rating, Ryegrass, Italian (ryegrass, Italian; [3]) | Plant response rating, Ryegrass, Italian (ryegrass, Italian; [4]) | Plant response rating, Ryegrass, Italian (ryegrass, Italian; [5]) | Plant response rating, Ryegrass, Italian (ryegrass, Italian; [15]) | Plant response rating, Nutsedge, Yellow (nutsedge, yellow; [3]) | Plant response rating, Nutsedge, Yellow (nutsedge, yellow; [4]) | Plant response rating, Nutsedge, Yellow (nutsedge, yellow; [5]) | Plant response rating, Rice (rice) | Plant response rating, Pigweed (pigweed [1]; [10]) | Plant response rating, Pigweed (pigweed [1]; [11]) | Pigweed plant response rating (pigweed [1]; 125 g ai/ha) | Plant response rating, Pigweed (pigweed [1]; [12]) | Plant response rating, Johnsongrass (johnsongrass; [3]) | Plant response rating, Johnsongrass (johnsongrass; [4]) | Plant response rating, Johnsongrass (johnsongrass; [5])
